Article PMC10363080, “Modulatory Effect of Pyrus pyrifolia Fruit and its Phenolics on Key Enzymes against Metabolic Syndrome: Bioassay-Guided Approach, HPLC Analysis, and In Silico Study” (Plant Foods for Human Nutrition (Dordrecht, Netherlands), 2023)

Tests used:
[1] = ABTS radical scavenging antioxidant assay; design: ABTS AA (%) antioxidant activity percentage: concentration or dose not given beside the values; settings: for ABTS antioxidant activity: Trolox equivalent per gram of sample, mean ± SD, n=3; for ABTS AA (%) antioxidant activity percentage: compared to ascorbic acid (=100)
Experimental: all of analytical grade. An electrothermal 9100 (UK) was used for the determination of melting points (uncorrected). A Jenway model 6800 spectrophotometer was utilized for recording UV spectra. A Tecan, microplate reader, ((Infinite F50, Switzerland)) was used to measure the absorbances. A Bruker NMR system was used for 1H-NMR (400 MHz) and 13C-NMR (100 MHz).
The NMR spectra were determined in CD3OH and DMSO-d6. Chemical shifts are given in δ (ppm) relative to the internal standard TMS. Phenolic acids and flavonoids used in HPLC analysis as well as all other reagents for biological investigations were obtained from Sigma Chemical Company […]
Determination of the antioxidant activity
2,2`-Azino-bis(3-ethylbenzothiazoline-6-sulfonic acid) (ABTS), ferric reducing antioxidant power (FRAP), and oxygen radical absorbance capacity (ORAC) assays were performed according to the previously published procedures. Ascorbic acid was used as a reference antioxidant […]
drug. […]

ACE1 = ACE1 (Homo sapiens, UniProt P12821); assay: Angiotensin conversion enzyme (ACE) inhibitory activity (HHL substrate); format: biochemical; settings: isolated compounds, Table S7; read-out: Inhibition (IC50) ACE1
Chain of ACE1 (P12821 30-1232): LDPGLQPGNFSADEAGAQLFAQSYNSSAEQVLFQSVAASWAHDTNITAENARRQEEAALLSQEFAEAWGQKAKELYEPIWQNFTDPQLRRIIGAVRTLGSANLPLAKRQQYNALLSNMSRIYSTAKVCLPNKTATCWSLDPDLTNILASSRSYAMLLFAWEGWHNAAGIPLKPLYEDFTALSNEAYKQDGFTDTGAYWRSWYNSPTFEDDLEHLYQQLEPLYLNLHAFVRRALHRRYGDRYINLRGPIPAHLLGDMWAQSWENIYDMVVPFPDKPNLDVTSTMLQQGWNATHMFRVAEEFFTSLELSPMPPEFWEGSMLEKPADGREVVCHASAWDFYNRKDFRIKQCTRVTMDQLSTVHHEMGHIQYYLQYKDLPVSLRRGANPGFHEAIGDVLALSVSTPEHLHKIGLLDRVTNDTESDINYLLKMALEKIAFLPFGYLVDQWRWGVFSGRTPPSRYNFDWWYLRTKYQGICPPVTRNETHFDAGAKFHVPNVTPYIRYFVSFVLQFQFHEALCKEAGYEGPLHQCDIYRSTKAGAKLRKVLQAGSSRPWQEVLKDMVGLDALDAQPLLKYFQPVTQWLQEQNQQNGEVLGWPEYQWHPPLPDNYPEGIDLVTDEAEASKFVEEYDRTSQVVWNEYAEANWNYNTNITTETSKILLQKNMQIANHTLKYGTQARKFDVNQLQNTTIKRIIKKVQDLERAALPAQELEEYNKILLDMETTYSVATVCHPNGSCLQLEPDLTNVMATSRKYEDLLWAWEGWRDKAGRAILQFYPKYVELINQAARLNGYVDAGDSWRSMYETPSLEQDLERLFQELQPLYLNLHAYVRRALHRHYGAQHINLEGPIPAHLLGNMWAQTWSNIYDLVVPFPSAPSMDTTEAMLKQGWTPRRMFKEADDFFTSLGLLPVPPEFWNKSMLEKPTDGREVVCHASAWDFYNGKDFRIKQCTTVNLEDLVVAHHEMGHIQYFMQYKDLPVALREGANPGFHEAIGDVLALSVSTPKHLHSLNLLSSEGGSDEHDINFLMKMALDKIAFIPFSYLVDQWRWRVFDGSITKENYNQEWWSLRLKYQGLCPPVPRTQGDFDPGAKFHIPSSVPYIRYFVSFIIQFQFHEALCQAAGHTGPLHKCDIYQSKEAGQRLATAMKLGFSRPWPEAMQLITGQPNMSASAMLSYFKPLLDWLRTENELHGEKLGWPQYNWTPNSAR
Experimental: (§1) Phenolic acids and flavonoids used in HPLC analysis as well as all other reagents for biological investigations were obtained from Sigma Chemical Company […]
(§2) Inhibitory activity against key enzymes related to metabolic syndrome (MS) All assays were performed in 96-well plates. Stock solutions of the extract (100 mg/mL), fractions (100 mg/mL), and isolated compounds (1000 µM) were prepared. Tested samples that exceeded […]
(§3) inhibitory concentration (IC50). The percentage of enzyme inhibition was calculated according to […]
% Inhibition = (A−B) − (C−D) x 100 […]
Pancreatic lipase inhibitory activity […]

xanthine oxidase (XO) = xanthine oxidase (XO) (Bos taurus, UniProt P80457); assay: Xanthine oxidase (XO) inhibitory activity; format: biochemical; settings: isolated compounds, Table S7; read-out: Inhibition (IC50) XO
Chain of xanthine oxidase (XO) (P80457 2-1332): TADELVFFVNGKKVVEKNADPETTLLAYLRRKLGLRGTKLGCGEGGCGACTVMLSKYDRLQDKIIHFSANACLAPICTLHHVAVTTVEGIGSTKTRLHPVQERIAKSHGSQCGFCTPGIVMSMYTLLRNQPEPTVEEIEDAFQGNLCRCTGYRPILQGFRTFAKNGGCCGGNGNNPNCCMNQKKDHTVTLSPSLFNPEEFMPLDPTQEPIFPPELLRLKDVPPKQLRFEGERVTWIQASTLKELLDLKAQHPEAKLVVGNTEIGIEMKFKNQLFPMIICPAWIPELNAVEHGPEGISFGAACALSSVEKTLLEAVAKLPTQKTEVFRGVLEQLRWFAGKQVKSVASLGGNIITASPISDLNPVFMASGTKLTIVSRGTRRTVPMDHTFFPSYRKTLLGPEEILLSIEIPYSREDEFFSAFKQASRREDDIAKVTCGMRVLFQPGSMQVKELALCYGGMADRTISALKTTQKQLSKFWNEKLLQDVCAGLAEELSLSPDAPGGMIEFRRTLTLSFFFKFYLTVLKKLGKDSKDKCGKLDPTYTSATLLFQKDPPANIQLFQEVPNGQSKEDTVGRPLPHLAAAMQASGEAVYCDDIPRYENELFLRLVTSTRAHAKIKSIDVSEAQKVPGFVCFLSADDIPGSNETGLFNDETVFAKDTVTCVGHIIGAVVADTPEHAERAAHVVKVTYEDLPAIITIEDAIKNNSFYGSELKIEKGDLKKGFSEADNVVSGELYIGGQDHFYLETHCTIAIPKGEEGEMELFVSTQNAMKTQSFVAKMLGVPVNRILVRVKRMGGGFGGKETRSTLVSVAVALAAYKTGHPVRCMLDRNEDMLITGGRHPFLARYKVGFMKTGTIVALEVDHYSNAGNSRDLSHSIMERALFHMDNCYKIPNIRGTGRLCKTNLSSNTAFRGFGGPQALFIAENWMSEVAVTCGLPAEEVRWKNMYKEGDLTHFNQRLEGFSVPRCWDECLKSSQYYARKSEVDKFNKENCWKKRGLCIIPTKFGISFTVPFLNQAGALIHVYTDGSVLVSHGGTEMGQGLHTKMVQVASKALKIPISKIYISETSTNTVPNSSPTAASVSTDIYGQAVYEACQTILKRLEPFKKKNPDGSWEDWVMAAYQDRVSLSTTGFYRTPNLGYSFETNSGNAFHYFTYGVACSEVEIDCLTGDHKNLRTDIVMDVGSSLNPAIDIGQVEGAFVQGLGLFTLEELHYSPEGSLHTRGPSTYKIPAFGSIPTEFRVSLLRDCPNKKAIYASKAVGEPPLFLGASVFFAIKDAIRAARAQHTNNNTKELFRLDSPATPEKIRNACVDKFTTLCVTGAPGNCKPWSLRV
Experimental: all of analytical grade. […]
as §1, §2, §3

C[C@@H]1O[C@@H](OC[C@H]2O[C@@H](Oc3c(-c4ccc(O)c(O)c4)oc4cc(O)cc(O)c4c3=O)[C@H](O)[C@@H](O)[C@@H]2O)[C@H](O)[C@H](O)[C@H]1O [P1, rutin]
ABTS antioxidant activity [1]: 180.29±1.08 μM TE/g | ABTS AA (%) antioxidant activity percentage [1]: 62.64%

O=c1c(O[C@@H]2O[C@H](CO)[C@@H](O)[C@H](O)[C@H]2O)c(-c2ccc(O)c(O)c2)oc2cc(O)cc(O)c12 [P2, isoquercitrin]
ABTS antioxidant activity [1]: 240.75±0.28 μM TE/g | ABTS AA (%) antioxidant activity percentage [1]: 83.66%

COc1cc(-c2oc3cc(O)cc(O)c3c(=O)c2O[C@@H]2O[C@H](CO)[C@@H](O)[C@H](O)[C@H]2O)ccc1O [P3, isorhamnetin-3-O-β-D-glucopyranoside]
ABTS antioxidant activity [1]: 229.71±0.38 μM TE/g | ABTS AA (%) antioxidant activity percentage [1]: 79.82% | IC50 (ACE1): 0.31 ± 0.86 µM | IC50 (xanthine oxidase (XO)): 3.56 ± 0.83 µM

O=C(O)/C=C/c1ccccc1 [P6, cinnamic acid]
ABTS antioxidant activity [1]: 250.28±0.21 μM TE/g | ABTS antioxidant activity ([1]; listed as Cinnamic acid (P6)): 250.28 ± 0.21 μM TE/g | ABTS AA (%) antioxidant activity percentage [1]: 86.97%
